We go through ten compounds from patent US10017481B2, “Conformationally constrained, fully synthetic macrocyclic compounds” (POLYPHOR AG, priority 2012, dated 2018).

The structures appear in SMILES notation. In brackets after ≈: the same amount, converted by molar mass. Like-named read-outs stand apart in the source and are kept apart here. Some results are limits rather than exact numbers.

The test system of series [1] is S. pneumoniae DSM 20566 11A11, 3313A6, 704CG4B21, 82BERG72. The series can be described thus: Antimicrobial assay, broth microdilution MIC, S. pneumoniae strains. In kind it is cell-based. As to conditions: Streptococcus pneumoniae, DSM20566. Here is the method:
The antimicrobial activities of the compounds were determined in 96-well plates (Greiner, polystyrene) by the standard NCCLS broth microdilution method (National Committee for Clinical Laboratory Standards 1993. Methods for dilution antimicrobial susceptibility tests for bacteria that grow aerobically, 3rd ed. Approved standard M7-A6. National Committee for Clinical laboratory standards, Wayne, Pa.) with slight modifications. Inocula of the microorganisms were diluted into Mueller-Hinton II (MH, cation adjusted) broth+0.002% P-80 and compared with a 0.5 McFarland standard to give appr. 10^6 colony forming units (CFU)/mL. Aliquots (50 μl) of inoculate were added to 50 μl of MH broth+0.002% P-80 containing the compounds in serial two-fold dilutions. The following microorganisms were used to determine antibiotic selectivity of the compounds: S. pneumoniae DSM 20566 11A11, 3313A6, 704CG4B21, 82BERG72; S. aureus ATCC 29213, ATCC 25923, DSM 11729, DSM 46320, S. aureus 39. Antimicrobial activities of the compounds were expressed as the minimal inhibitory concentration (MIC) in μg/mL at which no visible growth was observed after 18-20 hours of incubation at 36° C.
A general note: Dilution methods test growth across graded concentrations, often in twofold steps.

A short description of series [2]: Plasma stability assay, human plasma. The note with it: for Plasma Stability 240 min hum [% remain.]: human plasma, 10 μM, 37° C. In kind it is in vitro ADME. A digest of the protocol: (§1)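 Compounds at 10 μM were incubated at 37 °C in triplicate in sodium citrate-stabilized plasma (human, or pooled mixed-gender CD-1 mouse). Samples taken at 0–240 min were acetonitrile-quenched and analyzed by HPLC/MS/MS. Remaining peak area as % of t0 gave endpoint stability (%) and half-life (min).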

The nature of series [3]: Plasma stability assay, CD-1 mouse plasma. In kind it is in vitro ADME. As to conditions: for Plasma Stability 240 min mouse/(rat) [% remain.]: CD-1 mouse plasma, 10 μM, 37° C.; for half-life at 10 μM: both sexes, CD-1, mouse. A digest of the protocol:
as §1

Series [4] in a line: Metabolic stability assay, human liver microsomes. In kind it is in vitro ADME. The note with it: for half-life at 10 μM: both sexes, liver microsomes, 1 mg/ml protein, read-out: Metabolic Stability T ½ [min] hum; for half-life at 10 μM / Metabolic Stability 60 min hum [% remain.]: human microsomes, 37° C., 10 μM. The gist of the method:
(§2)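 Pooled human (50 donors, mixed gender) or CD-1 mouse microsomes at 1 mg/mL protein, 10 μM compound, 100 mM potassium phosphate with NADPH-regenerating system, 37 °C in duplicate. Samples at 0, 5, 10, 20, 60 min analysed by HPLC/MS/MS; turnover as % of 0-min value and T½ (min) calculated.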
Background: Liver microsomes are a subcellular fraction often used to study metabolism.

A short description of series [5]: Metabolic stability assay, CD-1 mouse microsomes. In kind it is in vitro ADME. As to conditions: for Metabolic Stability 60 min mouse/(rat) [% remain.] / half-life at 10 μM: CD-1 mouse microsomes, 10 μM, 37° C.; for half-life at 10 μM: both sexes, 1 mg/ml protein, read-out: Metabolic Stability T ½ [min] mouse/(rat). A digest of the protocol:
as §2

[6] abbreviates: strain 11A11, read-out: MIC S. pneumoniae 11A11.
The mark [7] stands for this setting: strain 82BERG72, read-out: MIC S. pneumoniae 82BERG72.
Setting [8] is: strain 704CG4B21, read-out: MIC S. pneumoniae 704CG4B21.
Where [9] appears, read: strain 3313A6, read-out: MIC S. pneumoniae 3313A6.
The mark [10] stands for this setting: strain DSM 20566 (Table 32.8), read-out: MIC S. pneumoniae DSM 20566.

On to `N[C@H]1C[C@H]2COc3cc(F)cc(c3)-c3csc(c3)C(=O)N[C@H](C(=O)Nc3ccccc3)COCCCCC(=O)N2C1` [Ex. 247, (8S,18S,20S)-18-amino-25-fluoro-6,15-dioxo-N-phenyl-10,22-dioxa-4-thia-7,16-diazatetracyclo[21.3.1.1^2,5.0^16,20]octacosa-1(27),2,5(28),23,25-pentaene-8-carboxamide], for which the minimal inhibitory concentration (MIC) (commonly the lowest concentration that inhibits growth of the organism) in series [1] (setting [6]) turned out to be 16 µg/mL (≈ 27.6 µM); in series [1] (setting [7]), 8 µg/mL (≈ 13.8 µM); in series [1] (setting [8]), 16 µg/mL (≈ 27.6 µM); in series [1] (setting [9]) it was 16 µg/mL (≈ 27.6 µM); in series [1] (setting [10]), 16 µg/mL (≈ 27.6 µM).
`N[C@H]1C[C@H]2COc3cc(F)cc(c3)-c3csc(c3)C(=O)N[C@H](C(=O)Nc3ccc(Cl)cc3)COCCCCC(=O)N2C1` [Ex. 257, (8S,18S,20S)-18-amino-N-(4-chlorophenyl)-25-fluoro-6,15-dioxo-10,22-dioxa-4-thia-7,16-diazatetracyclo[21.3.1.1^2,5.0^16,20]octacosa-1(27),2,5(28),23,25-pentaene-8-carboxamide]: the MIC came out at 8 µg/mL (≈ 13 µM) in series [1] (setting [6]); 2 µg/mL (≈ 3.25 µM) in series [1] (setting [7]); 8 µg/mL (≈ 13 µM) in series [1] (setting [8]); 8 µg/mL (≈ 13 µM) in series [1] (setting [9]); 8 µg/mL (≈ 13 µM) in series [1] (setting [10]).
On to `Cc1cccc(NC(=O)[C@@H]2COCCCCC(=O)N3C[C@@H](N)C[C@H]3COc3cc(F)cc(c3)-c3csc(c3)C(=O)N2)c1` [Ex. 259, (8S,18S,20S)-18-amino-25-fluoro-N-(3-methylphenyl)-6,15-dioxo-10,22-dioxa-4-thia-7,16-diazatetracyclo[21.3.1.1^2,5.0^16,20]octacosa-1(27),2,5(28),23,25-pentaene-8-carboxamide], for which the MIC in series [1] (setting [6]) was determined as 16 µg/mL (≈ 26.9 µM); in series [1] (setting [7]), 4 µg/mL (≈ 6.73 µM); in series [1] (setting [8]), 8 µg/mL (≈ 13.5 µM); in series [1] (setting [9]), 8 µg/mL (≈ 13.5 µM); in series [1] (setting [10]), 8 µg/mL (≈ 13.5 µM).
Turning to `COc1ccc2c(c1)-c1cccc(c1)C(=O)N(C)[C@H](C(=O)NCCCN)CCC(=O)N[C@H](C)CO2` [Ex. 49, (10R,15S)-N-(3-aminopropyl)-4-methoxy-10,16-dimethyl-12,17-dioxo-8-oxa-11,16-diazatricyclo[16.3.1.0^2,7]docosa-1(22),2,4,6,18,20-hexaene-15-carboxamide], the “Plasma Stability 240 min hum [% remain.]” value in series [2] came out at 95 % remain. In addition, the half-life at 10 μM is > 4 h in series [2] (human, plasma); > 4 h in series [3] (plasma); > 60 min in series [4]; > 60 min in series [5]. Further, in series [3], the “Plasma Stability 240 min mouse/(rat) [% remain.]” value came to 76 % remain. In addition, in series [4], the “Metabolic Stability 60 min hum [% remain.]” value is reported as 100 % remain. The “Metabolic Stability 60 min mouse/(rat) [% remain.]” value in series [5] is 92 % remain.
For the compound `COCCNC(=O)[C@@H]1CCC(=O)N[C@@H](C)COc2cccc(c2)-c2cccc(c2)C(=O)N1C` [Ex. 77, (9S,14S)-N-(2-methoxyethyl)-9,15-dimethyl-11,16-dioxo-7-oxa-10,15-diazatricyclo[15.3.1.1^2,6]docosa-1(21),2(22),3,5,17,19-hexaene-14-carboxamide], the “Plasma Stability 240 min hum [% remain.]” value in series [2] amounted to 96 % remain. Besides, the half-life at 10 μM in series [2] (human, plasma) was > 4 h; in series [3] (plasma) it was > 4 h; in series [4], 44 min; in series [5], > 60 min. Further, the “Plasma Stability 240 min mouse/(rat) [% remain.]” value in series [3] was determined as 85 % remain. For the same compound, the “Metabolic Stability 60 min hum [% remain.]” value in series [4] was determined as 41 % remain. Also, the “Metabolic Stability 60 min mouse/(rat) [% remain.]” value in series [5] worked out at 75 % remain.
Regarding `COc1ccc2c(c1)-c1cccc(c1)C(=O)N(C)[C@H](C(=O)NCC(=O)O)CCC(=O)N[C@H](C)CO2` [Ex. 57, 2-({[(10R,15S)-4-methoxy-10,16-dimethyl-12,17-dioxo-8-oxa-11,16-diazatricyclo[16.3.1.0^2,7]docosa-1(22),2,4,6,18,20-hexaen-15-yl]carbonyl}amino)acetic acid], in series [2], the “Plasma Stability 240 min hum [% remain.]” value was determined as 100 % remain. Moreover, the half-life at 10 μM in series [2] (human, plasma) was > 4 h; in series [3] (plasma), > 4 h; in series [4] it was > 60 min; in series [5], > 60 min. Besides, the “Plasma Stability 240 min mouse/(rat) [% remain.]” value in series [3] is 74 % remain. Also, in series [4], the “Metabolic Stability 60 min hum [% remain.]” value came to 100 % remain. In series [5], the “Metabolic Stability 60 min mouse/(rat) [% remain.]” value stood at 100 % remain.
As for `COc1ccc2c(c1)-c1cccc(c1)C(=O)N(C)[C@H](C(=O)N1CCCC1)CCC(=O)N[C@H](C)CO2` [Ex. 46, (10R,15S)-4-methoxy-10,16-dimethyl-15-(1-pyrrolidinylcarbonyl)-8-oxa-11,16-diazatricyclo[16.3.1.0^2,7]docosa-1(22),2,4,6,18,20-hexaene-12,17-dione], in series [2], the “Plasma Stability 240 min hum [% remain.]” value is given as 100 % remain. Besides, the half-life at 10 μM was > 4 h in series [2] (human, plasma); > 4 h in series [3] (plasma); 32 min in series [4]; > 60 min in series [5]. For the same compound, in series [3], the “Plasma Stability 240 min mouse/(rat) [% remain.]” value was determined as 78 % remain. The “Metabolic Stability 60 min hum [% remain.]” value in series [4] stood at 26 % remain. Moreover, the “Metabolic Stability 60 min mouse/(rat) [% remain.]” value in series [5] turned out to be 71 % remain.
Turning to `C[C@H]1COc2cccc(c2)-c2cccc(c2)C(=O)N(C)[C@H](C(=O)NCc2ccc3ccccc3c2)CCC(=O)N1` [Ex. 89, (9S,14S)-9,15-dimethyl-N-(2-naphthylmethyl)-11,16-dioxo-7-oxa-10,15-diazatricyclo[15.3.1.1^2,6]docosa-1(21),2(22),3,5,17,19-hexaene-14-carboxamide], the “Plasma Stability 240 min hum [% remain.]” value in series [2] is recorded as 100 % remain. Besides, the half-life at 10 μM is > 4 h in series [2] (human, plasma); > 4 h in series [3] (plasma); 13 min in series [4]; 10 min in series [5]. Further, in series [3], the “Plasma Stability 240 min mouse/(rat) [% remain.]” value is reported as 76 % remain. The “Metabolic Stability 60 min hum [% remain.]” value in series [4] is 8 % remain. Further, the “Metabolic Stability 60 min mouse/(rat) [% remain.]” value in series [5] worked out at 2 % remain.
For the compound `COc1ccc2c(c1)-c1cccc(c1)C(=O)N(C)[C@H](C(=O)N(C)CCN(C)C)CCC(=O)N[C@H](C)CO2` [Ex. 59, (10R15S)-N-[2-(dimethylamino)ethyl]-4-methoxy-N,10,16-trimethyl-12,17-dioxo-8-oxa-11,16-diazatricyclo[16.3.1.0^2,7]docosa-1(22),2,4,6,18,20-hexaene-15-carboxamide], the “Plasma Stability T ½ [min] hum” value in series [2] (human, plasma) is >240 min. Moreover, the “Plasma Stability T ½ [min] mouse/(rat)” value in series [3] (plasma) was >240 min. Further, the “Metabolic Stability T ½ [min] hum” value in series [4] (human, microsomes) is recorded as >60 min. Besides, the “Metabolic Stability T ½ [min] mouse/(rat)” value in series [5] (microsomes) is listed as >60 min.
Regarding `C[C@H]1COc2cccc(c2)-c2cccc(c2)C(=O)N(C)[C@H](C(=O)NCCO)CCC(=O)N1` [Ex. 81, (9S,14S)-N-(2-hydroxyethyl)-9,15-dimethyl-11,16-dioxo-7-oxa-10,15-diazatricyclo[15.3.1.1^2,6]docosa-1(21),2(22),3,5,17,19-hexaene-14-carboxamide], the “Plasma Stability 240 min hum [% remain.]” value in series [2] turned out to be 88 % remain. Further, the half-life at 10 μM in series [2] (human, plasma) is > 4 h; in series [3] (plasma), > 4 h; in series [4], > 60 min; in series [5] it was > 60 min. Moreover, the “Plasma Stability 240 min mouse/(rat) [% remain.]” value in series [3] came out at 100 % remain. Further, the “Metabolic Stability 60 min hum [% remain.]” value in series [4] is reported as 100 % remain. Also, the “Metabolic Stability 60 min mouse/(rat) [% remain.]” value in series [5] was 97 % remain.
